Experimental data as given in PMC7761982, “FDA-Approved Drugs with Potent In Vitro Antiviral Activity against Severe Acute Respiratory Syndrome Coronavirus 2” (Pharmaceuticals, 2020).
pIC50: −log10 of the molar value. Read-outs that look alike come from different tables or passages of the source.

Legend:
SARS-CoV-2 [1] = details: read-out: IC50 against SARS-CoV-2 (reported); cited from earlier work
in vitro = details: African green monkey, CC50 (Vero-E6), half maximal cytotoxic concentration, MTT assay, Vero-E6 cells
NRC-03-nhCoV [2] = experiment: microbe, parasite or virus in culture; type: cell-based, SARS-CoV-2; details: for pIC50: Severe acute respiratory syndrome coronavirus 2, Vero C1008, 72 h, Vero-E6 cells, 72 h, crystal violet, reduction of virus-induced CPE by 50%, read-out: IC50 (NRC-03-nhCoV); for IC50: Severe acute respiratory syndrome coronavirus 2, Vero C1008, negative log of the IC50 value against SARS-CoV-2, read-out: pIC50 (converted)
NRC-03-nhCoV [3] = experiment: Viral adsorption mechanism, plaque infectivity reduction assay; type: cell-based, SARS-CoV-2
Protocol: The viral adsorption mechanism was assayed according to a protocol by Zhang and his colleagues with minor modifications. Vero-E6 cells were cultivated in a 6-well plate (10^5 cells/mL) for 24 h at 37 °C. Each tested drug was applied in 200 µL medium without supplements and co-incubated with the cells for 2 h at 4 °C. The inocula containing the non-absorbed drug were removed by washing cells three successive times with supplement-free medium. SARS-CoV-2 virus diluted to 104 PFU/well was co-incubated with the pretreated cells for 1 h, and then 3 mL DMEM supplemented with 2% agarose were added. Plates were left to solidify and then incubated at 37 °C to allow the formation of viral plaques. The plaques were fixed and stained as described above to calculate the percentage reduction in plaque formation compared to control wells, which comprised untreated Vero-E6 cells directly infected with NRC-03-nhCoV.

NRC-03-nhCoV [4] = experiment: Virucidal mechanism, plaque infectivity reduction assay; type: cell-based, SARS-CoV-2; details: for virucidal effect: concentration not given
Protocol: The virucidal mechanism was assayed following a previously described protocol. In a 6-well plate, Vero-E6 cells were cultivated (10^5 cells/mL) for 24 h at 37 °C and 200 µL of serum-free DMEM containing SARS-CoV-2 was added to each sample with promising inhibition. After 1 h incubation, the mixture was diluted 10-fold three times using serum-free medium, which still allowed viral particles to grow on Vero-E6 cells. Next, 100 µL of each dilution were added to the Vero-E6 cell monolayer. After 1 h contact time, a DMEM overlayer was added to the cell monolayer. Plates were left to solidify and incubated at 37 °C to allow the formation of viral plaques. The plaques were fixed and stained as described above to calculate the percentage reduction in plaque formation. This value was compared to control wells comprising cells infected with virus and not pretreated with the tested material.

MERS-CoV = experiment: microbe, parasite or virus in culture; type: cell-based; details: for antiviral effect on MERS-CoV compared with SARS-CoV-2: equal concentrations of drug, plaque reduction assay
NRC-03-nhCoV [5] = experiment: Viral replication mechanism, plaque infectivity reduction assay; type: cell-based, SARS-CoV-2
Protocol: The impact of tested drug on viral replication was determined as previously described. Vero-E6 cells were cultivated in a 6-well plate (10^5 cell/mL) for 24 h at 37 °C. Virus was inoculated directly to the cells and incubated for 1 h at 37 °C. The inocula containing the non-adsorbed viral particles were removed by washing cells three successive times with supplement-free medium. The test compound was added in varying concentrations to infected cells for another 1 h contact time. After removing the inocula containing the tested drug, 3 mL of DMEM supplemented with 2% agarose were added to the cell monolayer. Plates were left to solidify and incubated at 37 °C until the appearance of viral plaques. Cell monolayers were fixed in 10% formalin solution for 1 h and stained with crystal violet. Control wells contained Vero-E6 cells incubated with the virus. Plaques were counted and the percentage reduction in plaque formation was compared to the control wells.

SARS-CoV-2 [6] = experiment: Plaque reduction assay, anti-SARS-CoV-2 activity; type: cell-based; details: read-out: viral inhibition, SARS-CoV-2
[7] = Middle East respiratory syndrome-related coronavirus, read-out: viral inhibition, MERS-CoV
[8] = Severe acute respiratory syndrome coronavirus 2, read-out: Viral Adsorption, percent inhibition
[9] = Severe acute respiratory syndrome coronavirus 2, read-out: Virucidal, percent inhibition
[10] = Severe acute respiratory syndrome coronavirus 2, read-out: Viral Replication, percent inhibition

Row | Compound | CC50 (in vitro) [nM] | pIC50 (NRC-03-nhCoV [2]) | IC50 (NRC-03-nhCoV [2]) [nM] | virucidal effect (NRC-03-nhCoV [4]) | inhibition at 1.302 µM (NRC-03-nhCoV [3]; [8]) [%] | inhibition at 2.6 µM (NRC-03-nhCoV [3]; [8]) [%] | inhibition at 5.2 µM (NRC-03-nhCoV [3]; [8]) [%] | inhibition at 10.4 µM (NRC-03-nhCoV [3]; [8]) [%] | inhibition at 1.302 µM (NRC-03-nhCoV [4]; [9]) [%] | inhibition at 2.6 µM (NRC-03-nhCoV [4]; [9]) [%] | inhibition at 5.2 µM (NRC-03-nhCoV [4]; [9]) [%] | inhibition at 10.4 µM (NRC-03-nhCoV [4]; [9]) [%] | antiviral effect on MERS-CoV compared with SARS-CoV-2 (MERS-CoV) | inhibition at 1.302 µM (NRC-03-nhCoV [5]; [10]) [%] | inhibition at 2.6 µM (NRC-03-nhCoV [5]; [10]) [%] | also measured
1 | CC[C@H]1OC(=O)[C@H](C)[C@@H](O[C@H]2C[C@@](C)(OC)[C@@H](O)[C@H](C)O2)[C@H](C)[C@@H](O[C@@H]2O[C@H](C)C[C@H](N(C)C)[C@H]2O)[C@](C)(O)C[C@@H](C)CN(C)[C@H](C)[C@@H](O)[C@]1(C)O [Azithromycin] | 793000 | 6.49 | 324 | up to 51% |  |  |  |  |  |  |  |  |  |  |  | pIC50 (SARS-CoV-2 [1]): 5.67; inhibition at 0.16 µM (NRC-03-nhCoV [3]; Severe acute respiratory syndrome coronavirus 2, 0.16 µM, read-out: Viral Adsorption, percent inhibition): 0%; inhibition at 0.322 µM (NRC-03-nhCoV [3]; Severe acute respiratory syndrome coronavirus 2, 0.322 µM, read-out: Viral Adsorption, percent inhibition): 2%; inhibition at 0.64 µM (NRC-03-nhCoV [3]; Severe acute respiratory syndrome coronavirus 2, 0.64 µM, read-out: Viral Adsorption, percent inhibition): 27%; inhibition at 1.3 µM (NRC-03-nhCoV [3]; Severe acute respiratory syndrome coronavirus 2, 1.3 µM, read-out: Viral Adsorption, percent inhibition): ≤ 31%; inhibition at 0.16 µM (NRC-03-nhCoV [4]; Severe acute respiratory syndrome coronavirus 2, 0.16 µM, read-out: Virucidal, percent inhibition): 12%; inhibition at 0.322 µM (NRC-03-nhCoV [4]; Severe acute respiratory syndrome coronavirus 2, 0.322 µM, read-out: Virucidal, percent inhibition): 34%; inhibition at 0.64 µM (NRC-03-nhCoV [4]; Severe acute respiratory syndrome coronavirus 2, 0.64 µM, read-out: Virucidal, percent inhibition): 51%; inhibition at 1.3 µM (NRC-03-nhCoV [4]; Severe acute respiratory syndrome coronavirus 2, 1.3 µM, read-out: Virucidal, percent inhibition): 51%; inhibition at 5 µM (MERS-CoV; [7]): ~20%; inhibition at 10 µM (MERS-CoV; [7]): ~30%; inhibition at 0.16 µM (NRC-03-nhCoV [5]; Severe acute respiratory syndrome coronavirus 2, 0.16 µM, read-out: Viral Replication, percent inhibition): 0%; inhibition at 0.322 µM (NRC-03-nhCoV [5]; Severe acute respiratory syndrome coronavirus 2, 0.322 µM, read-out: Viral Replication, percent inhibition): 0%; inhibition at 0.64 µM (NRC-03-nhCoV [5]; Severe acute respiratory syndrome coronavirus 2, 0.64 µM, read-out: Viral Replication, percent inhibition): 2%; inhibition at 1.3 µM (NRC-03-nhCoV [5]; Severe acute respiratory syndrome coronavirus 2, 1.3 µM, read-out: Viral Replication, percent inhibition): 4%; inhibitory effect on virus replication (NRC-03-nhCoV [5]; concentration not given): negligible effect on viral replication; inhibition at 5 µM (SARS-CoV-2 [6]; Severe acute respiratory syndrome coronavirus 2, 5 µM (lowest concentration tested)): ~80%; inhibition at 10 µM (SARS-CoV-2 [6]; Severe acute respiratory syndrome coronavirus 2, 10 µM (highest concentration tested)): ~90%
2 | CC(=O)Oc1ccccc1C(=O)Nc1ncc([N+](=O)[O-])s1 [Nitazoxanide] | 665000 | 5.89 | 1290 |  | 0 | 1 | 11 | 11 | 39 | 61 | 75 | 78 | equally effective against SARS-CoV-2 and MERS-CoV | 35 | 40 | Viral Replication, percent inhibition (NRC-03-nhCoV [5]; 5.2 µM): Toxic; Viral Replication, percent inhibition (NRC-03-nhCoV [5]; 10.4 µM): Toxic
3 | O=C(Nc1ccc([N+](=O)[O-])cc1Cl)c1cc(Cl)ccc1O [Niclosamide] | 205000 | 6.80 | 162 | 37% | 0 | 0 | 0 | 0 | 16 | 21 | 21 | 37 | equally effective against SARS-CoV-2 and MERS-CoV | 23 | 55 | inhibition during the viral adsorption stage (NRC-03-nhCoV [3]; concentration not given): negligible reduction in viral inhibition; inhibition at 5.2 µM (NRC-03-nhCoV [5]; Severe acute respiratory syndrome coronavirus 2, 5.2 µM, read-out: Viral Replication, percent inhibition): 68%; inhibition at 10.4 µM (NRC-03-nhCoV [5]; Severe acute respiratory syndrome coronavirus 2, 10.4 µM, read-out: Viral Replication, percent inhibition): 70%
